Experimental data as given in patent US10851108B2, “Substituted bicyclic heterocyclic compounds” (BRISTOL-MYERS SQUIBB COMPANY, priority 2016, dated 2020).

What follows are compounds tested against hROMK (human Kir1.1) (Homo sapiens (Human), UniProt P48048) (assay: Thallium Flux Assay). Settings: CHO T-Rex hROMK stable cell line, 10-point concentration response; read-out: hROMK Th+ Flux IC50.
Assay type: cell-based
Experimental: Solutions and reagents: Thallium flux assay was performed using FluxOR kit (F10017, Life Technologies). Loading buffer, assay buffer and stimulus buffer were prepared using kit components. HBSS (Hank's balanced salt solution, Cat #14025-092) was purchased separately from Life Technologies.
To prepare 10 ml of loading buffer: 10 μl of FluxOR dye (reconstituted in DMSO) was first added to 100 μl of powerload concentrate and this mix along with 100 μl of Probenicid (100×) was then added to 9.79 ml of HBSS. Assay buffer (10 ml) was prepared by addition of 2 ml of FluxOR chloride free buffer (5×), 100 μl of Probenicid (100×), and 0.2 ml of Ouabain (13.77 mM) to 7.7 ml of deionized water. Stimulus buffer was composed of 15 mM Tl2SO4, 0.75 mM K2SO4 in FluxOR chloride free buffer (diluted to 1× using deionized water). The final concentration of Tl2SO4 and K2SO4 in the assay plate was 3 mM and 0.15 mM, respectively.
Plating and induction of cells: The CHO T-Rex hROMK (human Kir1.1) stable cell line was maintained in Ham's F12 media supplemented with 10% FBS, 1% Penicillin-Streptomycin, 500 μg/ml Zeocin and 10 μg/ml Blasticidin at 37° C. in a 5% CO2 incubator. One day before the experiment, the cells were dissociated by incubation with Versene solution (15040-066, Life Technologies) for 10 minutes at 37° C. followed by addition of growth media. The cell suspension was centrifuged at 1200 rpm for 5 min. After discarding the supernatant, the cells were resuspended in fresh growth media and cell concentration was determined using a hemocytometer. Next, 0.5 μg/ml of Doxycycline was added to the cell suspension to induce hROMK channel expression and 50 μl (10,000 cells/well) of cell suspension was added to each well of a poly-D lysine coated 384 well black, optically clear bottom plate (6007718, Perkin Elmer). The assay plate was kept at 37° C. in a 5% CO2 incubator.
Assay protocol: On the day of experiment, media was removed and loading buffer was added (30 μl/well) to the assay plate. The cells were incubated in the loading buffer for 30 minutes at 37° C. The loading buffer was then replaced by assay buffer (30 μl/well) followed by addition of test compounds or controls. The cells were incubated with compounds for 30 minutes and the plate was then mounted on FlexStation (Molecular Devices) for fluorescence read out with excitation and emission wavelengths at 488 and 525 nm, respectively. Each well was read for 90 sec at 2 sec interval and the stimulus buffer was added after 20 seconds of baseline recording. The final DMSO concentration was either 0.5 or 1% in the assay plate. […] controls were defined by addition of DMSO or 3 μM of a standard ROMK inhibitor, respectively, to the wells instead of a test compound.
A 10-point concentration response curve was used to estimate the IC50 value of test compounds.
The data in Table 3 is reported with two significant figures.

Chain of hROMK (human Kir1.1) (P48048 whole entry): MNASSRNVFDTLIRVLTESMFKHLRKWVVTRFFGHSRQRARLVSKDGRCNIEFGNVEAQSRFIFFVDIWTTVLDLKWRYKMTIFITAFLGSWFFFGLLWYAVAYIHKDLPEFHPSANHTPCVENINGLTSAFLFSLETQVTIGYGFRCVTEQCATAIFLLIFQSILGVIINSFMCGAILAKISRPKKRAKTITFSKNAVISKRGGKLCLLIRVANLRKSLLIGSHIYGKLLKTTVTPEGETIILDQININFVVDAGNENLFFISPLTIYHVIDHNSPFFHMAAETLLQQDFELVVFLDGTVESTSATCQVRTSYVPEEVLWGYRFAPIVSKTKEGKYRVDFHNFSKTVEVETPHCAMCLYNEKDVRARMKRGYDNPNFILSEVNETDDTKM

| IC50 | SMILES |
| --- | --- |
| 1800 nM | Cc1c(CN2CCc3nc(Nc4ccc5oc(=O)n(C)c5c4)ncc3C2)ccc2c1COC2=O [Example 49, 3-methyl-5-((6-((4-methyl-1-oxo-1,3-dihydroisobenzofuran-5-yl)methyl)-5,6,7,8-tetrahydropyrido[4,3-d]pyrimidin-2-yl)amino) benzo[d]oxazol-2(3H)-one] |
| 157 nM | Cc1c(C(O)CN2CCc3nc(-n4cnc5ccccc54)ncc3C2)ccc2c1COC2=O (single isomer, unassigned) [Example 67-I, 5-(2-(2-(1H-benzo[d]imidazol-1-yl)-7,8-dihydropyrido[4,3-d]pyrimidin-6(5H)-yl)-1-hydroxyethyl)-4-methyliso-benzofuran-1(3H)-one] |
| 410 nM | Cc1c(C(O)CN2CCc3nc(-n4ncc5c(C#N)cccc54)ncc3C2)ccc2c1COC2=O (single isomer, unassigned) [Example 12-II, 1-(6-(2-hydroxy-2-(4-methyl-1-oxo-1,3-dihydroisobenzofuran-5-yl)ethyl)-5,6,7,8-tetrahydropyrido[4,3-d]pyrimidin-2-yl)-1H-indazole-4-carbonitrile] |
| 1600 nM | Cn1c(=O)oc2ccc(C(O)CN3CCc4nc(-n5ncc6c(C#N)cccc65)ncc4C3)cc21 (single isomer, unassigned) [Example 3-II, 1-(6-(2-hydroxy-2-(3-methyl-2-oxo-2,3-dihydrobenzo[d]oxazol-5-yl)ethyl)-5,6,7,8-tetrahydropyrido[4,3-d]pyrimidin-2-yl)-1H-indazole-4-carbonitrile] |
| 750 nM | Cc1c(CN2CCc3nc(-n4ncc5cc(C#N)ccc54)ncc3C2)ccc2c1COC2=O [Example 13, 1-(6-((4-methyl-1-oxo-1,3-dihydro-isobenzofuran-5-yl)methyl)-5,6,7,8-tetrahydropyrido[4,3-d]pyrimidin-2-yl)-1H-indazole-5-carbonitrile] |
| 1030 nM | Cc1c(C(O)CN2CCc3nc(Nc4ccc5oc(=O)n(C)c5c4)ncc3C2)ccc2c1COC2=O (single isomer, unassigned) [Example 62-I, 5-((6-(2-hydroxy-2-(4-methyl-1-oxo-1,3-dihydroisobenzofuran-5-yl)ethyl)-5,6,7,8-tetrahydropyrido[4,3-d]pyrimidin-2-yl)amino)-3-methylbenzo[d] oxazol-2(3H)-one] |
| 21 nM | O=C1OCc2cc(CN3CCc4cc(Nc5ccc6c(c5)COC6=O)ccc4C3)ccc21 [Example 15, 5-((6-((1-oxo-1,3-dihydroisobenzofuran-5-yl)amino)-3,4-dihydroisoquinolin-2(1H)-yl)methyl)isobenzofuran-1(3H)-one] |
| 1500 nM | N#Cc1cnc2c(ccn2-c2ncc3c(n2)CCN(Cc2ccc4c(c2)COC4=O)C3)c1 [Example 46, 1-(6-((1-oxo-1,3-dihydroisobenzofuran-5-yl)methyl)-5,6,7,8-tetrahydropyrido[4,3-d]pyrimidin-2-yl)-1H-pyrrolo[2,3-b] pyridine-5-carbonitrile] |
| 790 nM | Cc1c(CN2CCc3nc(Nc4ccc5c(c4C)COC5=O)ncc3C2)ccc2c1COC2=O [Example 5, 4-methyl-5-((2-((4-methyl-1-oxo-1,3-dihydroisobenzofuran-5-yl)amino)-7,8-dihydropyrido[4,3-d]pyrimidin-6(5H)-yl)methyl)isobenzofuran-1(3H)-one] |
| 820 nM | Cc1c(CN2CCc3cc(-n4ccc5c(C#N)cccc54)ccc3C2)ccc2c1COC2=O [Example 24, 1-(2-((4-methyl-1-oxo-1,3-dihydro-isobenzofuran-5-yl)methyl)-1,2,3,4-tetrahydroisoquinolin-6-yl)-1H-indole-4-carbonitrile] |
| 1240 nM | COC(=O)c1cnc2ccn(-c3ncc4c(n3)CCN(CC(O)c3ccc5c(c3C)COC5=O)C4)c2c1 (single isomer, unassigned) [Example 52-I, methyl 1-(6-(2-hydroxy-2-(4-methyl-1-oxo-1,3-dihydroisobenzofuran-5-yl)ethyl)-5,6,7,8-tetrahydropyrido[4,3-d]pyrimidin-2-yl)-1H-pyrrolo[3,2-b]pyridine-6-carboxylate] |
| 700 nM | Cc1c(C(O)CN2CCc3nc(-n4ncc5cc(C#N)ccc54)ncc3C2)ccc2c1COC2=O (single isomer, unassigned) [Example 50, 1-(6-(2-hydroxy-2-(4-methyl-1-oxo-1,3-dihydroisobenzofuran-5-yl)ethyl)-5,6,7,8-tetrahydropyrido[4,3-d]pyrimidin-2-yl)-1H-indazole-5-carbonitrile] |
| 1240 nM | Cc1c(C(O)CN2CCc3nc(Nc4ccc(-n5cnnn5)cn4)ncc3C2)ccc2c1COC2=O (single isomer, unassigned) [Example 63-I, 5-(2-(2-((5-(1H-tetrazol-1-yl)pyridine-2-yl)amino)-7,8-dihydropyrido[4,3-d]pyrimidin-6(5H)-yl)-1-hydroxyethyl)-4-methylisobenzofuran-1(3H)-one] |
| 640 nM | Cc1c(C(O)CN2CCc3nc(-n4ncc5c(C#N)cncc54)ncc3C2)ccc2c1COC2=O (single isomer, unassigned) [Example 43-II, 1-(6-(2-hydroxy-2-(4-methyl-1-oxo-1,3-dihydroisobenzofuran-5-yl)ethyl)-5,6,7,8-tetrahydropyrido[4,3-d]pyrimidin-2-yl)-1H-pyrazolo[3,4-c]pyridine-4-carbonitrile] |
| 120 nM | N#Cc1ccc(Nc2ccc3c(c2)CCN(CCc2ccc4c(c2)COC4=O)C3)cc1F [Example 6, 2-fluoro-4-((2-(2-(1-oxo-1,3-dihydroisobenzofuran-5-yl)ethyl)-1,2,3,4-tetrahydroisoquinolin-6-yl)amino)benzonitrile] |
| 1200 nM | Cc1c(C(O)CN2CCc3nc(-n4ncc5ncccc54)ncc3C2)ccc2c1COC2=O (single isomer, unassigned) [Example 41-II, 5-(2-(2-(1H-pyrazolo[4,3-b]pyridin-1-yl)-7,8-dihydropyrido[4,3-d]pyrimidin-6(5H)-yl)-1-hydroxyethyl)-4-methylisobenzofuran-1(3H)-one] |
| 2100 nM | Cc1c(C(CO)N2CCc3nc(Nc4ccc(C#N)c(F)c4)ncc3C2)ccc2c1COC2=O (single isomer, unassigned) [Example 29-II, 2-fluoro-4-((6-(2-hydroxy-1-(4-methyl-1-oxo-1,3-dihydroisobenzofuran-5-yl)ethyl)-5,6,7,8-tetrahydropyrido [4,3-d]pyrimidin-2-yl)amino)benzonitrile] |
| 1200 nM | N#Cc1ccc2c(cnn2-c2ncc3c(n2)CCN(Cc2ccc4c(c2)COC4=O)C3)c1 [Example 11, 1-(6-((1-oxo-1,3-dihydroisobenzofuran-5-yl)methyl)-5,6,7,8-tetrahydropyrido[4,3-d]pyrimidin-2-yl)-1H-indazole-5-carbonitrile] |
| 1000 nM | Cn1c(=O)oc2ccc(C(O)CN3CCc4nc(-n5ccc6c(C#N)cccc65)ncc4C3)cc21 (single isomer, unassigned) [Example 22-I, 1-(6-(2-hydroxy-2-(3-methyl-2-oxo-2,3-dihydrobenzo[d]oxazol-5-yl)ethyl)-5,6,7,8-tetrahydropyrido[4,3-d]pyrimidin-2-yl)-1H-indole-4-carbonitrile] |
| 1490 nM | Cc1c(C(O)CN2CCc3nc(-n4cnc5cccnc54)ncc3C2)ccc2c1COC2=O (single isomer, unassigned) [Example 55-I, 5-(2-(2-(3H-imidazo[4,5-b]pyridin-3-yl)-7,8-dihydropyrido[4,3-d]pyrimidin-6(5H)-yl)-1-hydroxyethyl)-4-methylisobenzofuran-1(3H)-one] |
| 200 nM | N#Cc1ccc(Nc2ccc3c(n2)CCN(CCc2ccc4c(c2)COC4=O)C3)cc1F [Example 7, 2-fluoro-4-((6-(2-(1-oxo-1,3-dihydroisobenzofuran-5-yl)ethyl)-5,6,7,8-tetrahydro-1,6-naphthyridin-2-yl)amino)benzonitrile] |
| 1900 nM | Cc1c(CN2CCc3cc(Nc4ccn5nccc5n4)ccc3C2)ccc2c1COC2=O [Example 38, 4-methyl-5-((6-(pyrazolo[1,5-a]pyrimidin-5-ylamino)-3,4-dihydroisoquinolin-2(1H)-yl)methyl)isobenzofuran-1(3H)-one] |
